Measured values reported in US8961986B2, “Peptide composition” (Apitope Technology (Bristol) Limited, priority 2000, dated 2015).
Entries after “also recorded” stand apart in the source; their conditions may differ.

Columns and labels:
[1] = system: MBP-specific T cell clones; assay: T cell clone (TCC) proliferation assay, fine mapping of MBP epitopes; format: cell-based, human; conditions: TCC from MS patients and healthy individuals, proliferative response
Experimental: MBP-specific T cell lines (TCL) are generated from 8 MS patients and 2 healthy control donors. PBMC from each subject are separated as described above and plated out at 1×10^6 cells/ml in 6-well plates in the presence of MBP (50 μg/ml); a portion of PBMC from each subject is regularly frozen and stored for subsequent restimulations. Seven days later the cells are fed with fresh medium containing 2% IL-2 (Lymphocult-HT; Biotest LTD., Birmingham, UK), and on day 12 of culture all cells are restimulated with antigen, IL-2 and irradiated (2500 Rad) autologous PBMC as a source of antigen presenting cells (APC), at a cell ratio of 1T cell:5 APC. Cells are expanded in IL-2 every 3-4 days, and on day 14 are restimulated with antigen, IL-2 and PBMC, as described above. On the day of the first restimulation cells are examined for specific proliferation to MBP. Briefly, 2×10^4 T cells and 1×10^5 irradiated autologous PBMC are cultured in triplicate, in 96-well round-bottom plates, in the presence of MBP. Cells are cultured for 2 days and pulsed with (^3H)-Thymidine at 0.4 μCi/well during the last 18 hours of the culture. Cells are then harvested as described above, and a TCL is considered to be MBP-specific with a δcpm>1000 and a SI>3.
Following 3 restimulation/expansion cycles TCL are cloned using PHA (Sigma, Poole, Dorset, UK)) in the presence of autologous irradiated PBMC as APC. T cells are plated under limiting dilution conditions at 0.1 cell/well, 0.3 cell/well and 1 cell/well and cultured in Terasaki plates (Nunc International, Costar) with 1×10^4 irradiated PBMC, 5 μg/ml PHA, and 2% IL-2. After 10-12 days, growth-positive wells are expanded onto 96-well round-bottom plates, using 1×10^5 irradiated PBMC, 5 μg/ml PHA and IL-2. Three days later wells are fed with fresh medium containing IL-2, and on day 7 the clones are expanded onto 48-well plates using 5×10^5 irradiated PBMC, PHA and IL-2; at this point clones are tested in proliferation assays for specific responses to MBP. MBP-specific clones are expanded a week later onto 24-well plates, using 1×10^6 irradiated PBMC with PHA or Dynabeads (Dynal, UK) and IL-2. The clones are maintained in 24-well plates using a 7-10 day restimulation/expansion cycle, essentially as described above. The ability of T cell clones (TCC) to recognize the panel of MBP peptides is tested by proliferation assays, as described above.
TCC are generated from 8 MS patients and 2 healthy individuals, and used to clarify the fine specificity of the peptide regions identified in the kinetic response assay. The specificity of each TCC is tested by its proliferative response to the panel of 15-mer peptides. Clone SD:A7 recognised region 1-24, and within this region this TCC responded to a.a. 5-19. Region 30-54 is recognised by 4 clones (MS49:D3, MS49:C8, MS49:A8, MS49:B6) and the epitope within this region is 30-44. […] Five clones (MS43:A7, MS41:B6, MS41:A2, MS41:C6, N5:8) recognize a.a. 83-99 which is contained in region 75-99. One patient produced TCC specific for a.a. 110-124 (MS60:A2, MS60:B3), contained within the 105-129 pool, and another TCC from the same patient is specific to 130-144 (MS60:E1), found within the 120-144 region. Five individuals produce clones which recognize epitopes within the region 135-159: MS60:F7, MS60:D1, MS59:F1 and N5:19 recognizes a.a. 140-154; MS57:A1 is specific to 140-149, and TCC MS17:A3 responds to sequence 130-144. […] Lastly, region 150-170 is recognized by 2 clones specific to a.a. 156-169.

HLA-DR2 = HLA-DR2 binding of cocktail peptides; set-up: species or system human
[2] = system: lymphocytes from HLA:DR2 (DRB1*1501) transgenic mice; assay: Induction of tolerance with Apitope MS6 in HLA:DR2 transgenic mouse, lymph node cell proliferation; format: in vivo
Experimental: HLA:DR2 transgenic mice aged 8-12 weeks were used in the study. The mice were tolerized by pre-treatment with 100 μg of Apitope MS6 in […] phosphate buffered saline (PBS) or […] alone, by intranasal administration on days −8, −6 and −4 prior to immunisation on day 0.
Following tolerization, mice were immunised subcutaneously with […] an emulsion containing an equal volume of Complete Freund's Adjuvant (CFA) and PBS containing 200 μg of Apitope MS6 and 400 μg heat-killed Mycobacterium tuberculosis. A control group of mice, previously tolerized with PBS intranasally, were immunised without peptide.
At 10 days post subcutaneous immunisation, draining popliteal and inguinal lymph nodes were removed and T-cell activation was assessed by assaying the proliferation of T-cells in response to various concentrations of Apitope MS6. Proliferation was measured by [^3H]-Thymidine incorporation, and expressed as the stimulation index (SI=corrected counts per minute (ccpm) culture containing peptide/ccpm culture without peptide).

[3] = system: MHC class I or II molecule; conditions: cited from earlier work
[4] = system: 81-111-responsive T-cell line and sub-lines; assay: Reactivity of T cell lines and clones from peptide-primed mice to MBP 81-111 region peptides; format: cell-based
Experimental: In order to investigate T cell reactivity to the 81-111 region of MBP, lymph node cells from mice primed with 81-111 are stimulated with 81-111 in vitro and these cells are tested with a panel of overlapping 10-mer peptides with two residue shifts covering the 81-111 region (namely: 81-90, 83-92, 85-94, 87-96, 89-98, 91-100, 93-102, 95-104, 97-106, 99-108 and 101-111). The response pattern to peptides covering the 89-101 show stimulatory capacity for 5 adjacent peptides (N terminal 87-96 through to 95-104) reflecting the presence of at least two (and perhaps three) distinct epitopes.
In order to investigate this region further, three sub-lines are generated from the original 81-111-responsive T-cell line and these are retested with a panel of overlapping 10-mer peptides with one residue shift covering the 84-106 region. The results reveal the existence of three distinct but overlapping T cell epitopes within the 89-101 sequence: 89-94, 92-98 and 95-101 (see FIG. 14).

[5] = system: draining lymph node cells; assay: Tolerance experiments with 89-101 and 87-96: lymph node cell recall proliferation; format: in vivo, Mice
Experimental: In order to test this possibility tolerance experiments are performed with the 89-101 and 87-96 peptides (FIGS. 15a and b).
Mice received 200 μg of peptide in PBS or PBS alone intraperitoneally on days −8, −6 and −4 prior to 100 μg of peptide in complete Freunds adjuvant on day 0. After 10 days, draining lymph node cells (6×10^5 per well) were cultured in X-Vivo 15 medium supplemented with 5×10^−5M 2-mercaptoethanol and […] L-glutamine with or without antigen for 72 hours. Cultures were pulsed for the final 16 hours with 0.5 μCi ^3H.thymidine and incorporation measured using a liquid scintillation counter. Results are expressed as means counts per minute for triplicate cultures.

[6] = system: experimental autoimmune encephalomyelitis (EAE); conditions: cited from earlier work
I-A^S = molecular target: T1, I-A^S (Mus musculus, UniProt P06345+P14437); conditions: cited from earlier work
T1 sequence (P14437 1-233): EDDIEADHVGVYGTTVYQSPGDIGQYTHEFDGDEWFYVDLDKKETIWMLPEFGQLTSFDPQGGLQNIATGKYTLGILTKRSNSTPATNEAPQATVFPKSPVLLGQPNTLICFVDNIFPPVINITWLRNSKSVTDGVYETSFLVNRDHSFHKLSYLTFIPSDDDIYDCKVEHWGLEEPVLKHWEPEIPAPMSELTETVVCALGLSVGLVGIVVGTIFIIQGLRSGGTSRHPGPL
T1 sequence (P06345 28-263): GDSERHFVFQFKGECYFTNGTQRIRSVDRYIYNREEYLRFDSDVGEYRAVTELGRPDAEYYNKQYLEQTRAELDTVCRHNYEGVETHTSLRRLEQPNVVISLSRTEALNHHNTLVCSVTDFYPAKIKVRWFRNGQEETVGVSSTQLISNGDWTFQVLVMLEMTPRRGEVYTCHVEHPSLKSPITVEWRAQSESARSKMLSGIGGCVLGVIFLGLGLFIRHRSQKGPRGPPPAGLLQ

[7] = system: fixed Mgar (HLA-DR2+ve) APC presenting to T cells from DR2:MBP 82-100 transgenic mouse; assay: Antigen-presentation assay using an APIPS (fixed APC) with T cells from DR2:MBP82-100 transgenic mouse; format: cell-based; conditions: live or p-formaldehyde-fixed Mgar cells, 72 h
Experimental: Presentation of peptides to T cells isolated from DR2:MBP82-100 transgenic mouse was essentially as described above except APC were plated at 5×10^5 cells per well, T cells were plated at 1×10^5 cells per well, and incubation was allowed to proceed for 72 h prior to the addition of [^3H]-thymidine.
For any given epitope, there may exist one or more apitopes, capable of being presented to APC without further processing. The presence of apitopes within two regions of MBP is investigated by incubating live or p-formaldehyde-fixed Mgar (HLA-DR2+ve) cells are incubated with overlapping peptides in serum from MBP regions 77-100 (FIG. 12) and 125-148 (FIG. 13) or in serum alone. T cells were added and after 72 h (FIG. 12) or after 48 h (FIG. 13) the T cell proliferative response was measured by ^3H-thymidine uptake. For MBP 77-100, the T cells are isolated from a DR2:MBP 82-100 transgenic mouse, whereas for MBP 130-144 the T cell clone MS17:A3 is used.

[8] = system: splenocytes from double transgenic mice; assay: Induction of tolerance with Apitope MS7 in HLA:DR2 / TCR MBP 82-100 double-transgenic mice, splenocyte proliferation; format: in vivo
Experimental: (§1) Groups of 6 or 7 age (8-12 weeks) and sex matched double transgenic mice were used. In the first experiment one group was treated ten times intranasally with 100 μg Apitope MS7 in […] at regular intervals over a period of three weeks. The control group received PBS alone. In the second experiment the same amount of peptide was given by subcutaneous/intradermal administration in […] PBS. The control group received the same volume of PBS.
Three days after the last administration of peptide or PBS, the spleens were harvested and cell suspensions prepared. The splenocytes were incubation with 0.5 or 5 μg/ml Apitope MS7, and assessed for proliferation by [^3H]-Thymidine incorporation after 48, 72 and 96 hours of culture. Results are expressed as stimulation indices (SI=counts per minute (cpm) of culture containing antigen/counts per minute without antigen).

[9] = system: splenocytes from double transgenic mice; assay: Induction of tolerance with Apitope MS7 in double-transgenic mice, splenocyte cytokine ELISA; format: in vivo; conditions: 48 hr cultures; subcutaneous/intradermal treatment vs PBS
Experimental: as §1
In the second experiment, where tolerance induction was induced via the subcutaneous/intradermal route, cell culture supernatants from the splenocytes were collected at 48 and 72 hrs of culture, and assayed for the presence of IFN-γ and interleukin-2 (IL-2) using an enzyme linked immunosorbant assay (ELISA).

## H-Gly-Phe-Lys-Gly-Val-Asp-Ala-Gln-Gly-Thr-Leu-Ser-Lys-Ile-Phe-NH2 (H-GFKGVDAQGTLSKIF-NH2) [MBP 140-154]
[1]
  T cell clones (TCC) recognising the peptide: responded
[1]; listed as 140-154
  T cell clones (TCC) recognising the peptide: recognizes
HLA-DR2
  HLA-DR2 binding: HLA-DR2 binding
[2]; Group B, 100 μg intranasal days -8, -6, -4, recall peptide 150 μg/ml (PBS group SI median 2.5 to 10)
  SI median of lymphocyte proliferation after intranasal pre-treatment: 3
[2]; intranasal pre-treatment
  tolerance induction in lymphocytes from HLA-DR2 mice: has induced tolerance
[3]
  identified as apitope in WO 03/064464: apitopes

## MBP 89-101: myelin basic protein (MBP) peptide 89-101, immunodominant antigen, not tolerogenic (PHLIRLFSRDAPG; UniProt P02686 89-101, looked up, fragment)
[4]; TCL specific for 89-94, 92-98, 95-101
  response of the three epitope-specific T cell lines (TCL) to the peptide: All three TCL respond
[5]; 200 μg i.p. days -8, -6, -4, priming 87-96 in CFA day 0, lymph node cells day 10
  effect of peptide as tolerogen on recall responses after priming with 87-96: failed to inhibit recall responses to either 87-96 or 89-101
[5]; PBS pre-treated mice, lymph node cells
  in vitro recall response after priming with 87-96: weaker response
[6]; Anderton and Wraith (1998)
  inducing tolerance when administered in solution: ineffective at inducing tolerance
[6]; EAE induced with whole myelin or the 89-101 peptide
  prevention of / protection against EAE by peptide in soluble form: does not prevent; also recorded: fails to protect against EAE
[6]; after immunisation
  immunogenicity: priming for T cell reactivity and induction of EAE: very effective immunogen
I-A^S
  binding affinity for I-A^S: relatively high affinity

## MBP 92-98: cryptic T cell epitope within MBP 89-101 (IRLFSRD; UniProt P02686 92-98, looked up, fragment)
[4]; six clones generated
  T cell clones from mice primed with the 89-101 peptide responding: all six clones

## H-Glu-Asn-Pro-Val-Val-His-Phe-Phe-Lys-Asn-Ile-Val-Thr-Pro-Arg-Thr-Pro-NH2 (H-ENPVVHFFKNIVTPRTP-NH2) [MBP 83-99]
[1]
  T cell clones (TCC) recognising the peptide: Five
[7]
  apitope within MBP region 77-100: shown to act as apitopes
HLA-DR2
  HLA-DR2 binding: HLA-DR2 binding
[8]; 72 hrs, cultures with 5 μg/ml 83-99, PBS control mean SI 89
  mean SI of splenocyte proliferation, intranasal treatment: 17
[8]; PBS treated animals mean SI 124
  mean SI of splenocyte proliferation, subcutaneous treatment: 49
[8]; intranasal and subcutaneous/intradermal
  splenocyte proliferation after treatment, both routes: striking reduction in proliferation
[9]
  IFNγ secretion in splenocyte culture supernatants: impressive reduction in secretion
  IL-2 secretion in splenocyte culture supernatants: impressive reduction in secretion
